# “Also recorded” adds a separate entry of the source. Read-outs that look alike come from different tables or passages of the source.
# Assays:
# H1N1 (PR8) [1] = system: H1N1 (PR8); set-up: species or system female Balb/c mice; conditions: mouse, in vivo
# H1N1 (PR8) [2] = system: H1N1 (PR8); set-up: species or system female Balb/c mice; conditions: mouse, in vivo; remark: listed apart in the source
# H1N1 (PR8) [3] = system: H1N1 (PR8); set-up: species or system female Balb/c mice; conditions: mouse, in vivo; remark: listed apart in the source
# H1N1 (PR8) [4] = system: H1N1 (PR8); set-up: species or system female Balb/c mice; conditions: mouse, in vivo; remark: listed apart in the source
# vaccinia virus [5] = assay type: cell-based
# vaccinia virus [6] = assay type: cell-based; remark: listed apart in the source
smiles,measurement,setting,value
C[C@@H]1C[C@H]2[C@@H]3CCC4=CC(=O)C=C[C@]4(C)[C@@]3(F)[C@@H](O)C[C@]2(C)[C@@]1(O)C(=O)CO [Dexamethasone],BAL Cytokine level: IFN-γ,H1N1 (PR8) [1],4.80 ± pg/ml
same,BAL Cytokine level: IL-6,H1N1 (PR8) [1],351.37 ± pg/ml
same,BAL Cytokine level: IP-10,H1N1 (PR8) [1],1102.42 pg/mL
same,BAL Cytokine level: KC,H1N1 (PR8) [1],854.41 pg/mL
same,BAL Cytokine level: TNF-α,H1N1 (PR8) [1],24.08 pg/mL
same,change in CXCL-10 in BAL fluid,H1N1 (PR8) [1],−8%
same,change in Interferon-γ (INF-γ) in BAL fluid,H1N1 (PR8) [1],−81%
same,change in Interleukin-6 (IL-6) in BAL fluid,H1N1 (PR8) [1],−52%
same,change in Keratinocyte-derived chemokine (KC) in BAL fluid,H1N1 (PR8) [1],+20%
same,change in TNF-α in BAL fluid,H1N1 (PR8) [1],−13%
same,BAL cell counts: Eosinophils,H1N1 (PR8) [2],0.03 million/animal
same,BAL cell counts: Lymphocytes,H1N1 (PR8) [2],0.15 million/animal
same,BAL cell counts: Mononuclear cells,H1N1 (PR8) [2],0.02 million/animal
same,BAL cell counts: Neutrophils,H1N1 (PR8) [2],0.34 million/animal
same,BAL cell counts: Totals,H1N1 (PR8) [2],0.54 million/animal
CCOC(=O)C1=C[C@@H](OC(CC)CC)[C@H](NC(C)=O)[C@@H](N)C1 [Oseltamivir],BAL Cytokine level: IFN-γ,H1N1 (PR8) [1],2.78 ± pg/ml
same,BAL Cytokine level: IL-6,H1N1 (PR8) [1],31.01 ± pg/ml
same,BAL Cytokine level: IP-10,H1N1 (PR8) [1],147.64 ± pg/ml
same,BAL Cytokine level: KC,H1N1 (PR8) [1],88.29 ± pg/ml
same,BAL cytokine levels compared to the H1N1 control group,H1N1 (PR8) [1],"statistically significantly (p<0.01) lower TNFα, IFNγ, IL-6, KC, and IP-10; also recorded: statistically significantly lower BAL total cells, neutrophils, eosinophils, lymphocytes, mononuclear cells BAL IFNγ, IL-6, IP-10, KC and TNFα"
same,H1N1 induced higher PenH,H1N1 (PR8) [3],completely attenuated H1N1 induced higher PenH
same,BAL cell counts: Eosinophils,H1N1 (PR8) [2],0.01 ± million/animal
same,BAL cell counts: Lymphocytes,H1N1 (PR8) [2],0.09 ± million/animal
same,BAL cell counts: Mononuclear cells,H1N1 (PR8) [2],0.01 ± million/animal
same,BAL cell counts: Neutrophils,H1N1 (PR8) [2],0.15 ± million/animal
same,BAL cell counts: Totals,H1N1 (PR8) [2],0.27 ± million/animal
same,BAL total and differential cells compared to the H1N1 control group,H1N1 (PR8) [2],"statistically significantly (p<0.01) lower BAL total cells, neutrophils, eosinophils, lymphocytes, and mononuclear cells"
same,body weight gain / body weight loss vs H1N1 vehicle control group,H1N1 (PR8) [4],statistically significantly higher (p<0.01) body weight gain from Day 6 to Day 11; also recorded: attenuated the clinical signs and bodyweight loss
same,clinical signs associated with H1N1 infection,H1N1 (PR8) [4],attenuation of the clinical signs; also recorded: attenuated the clinical signs
COc1cc(C(=O)c2cnc(-c3c[nH]c4ccccc34)[nH]2)cc(OC)c1OC.Cl [17ya hydrochloride salt],release of extracellular enveloped virus (EEV) from infected cells,vaccinia virus [5],dose dependent inhibition of virus released
same,virus associated with the infected cells (IMV),vaccinia virus [5],not a good correlation between the amount of drug and the amount of virus produced
same,IC50,"vaccinia virus [5]; read-out: IC50, virus released into the media (EEV)",24.3 nM
same,IC90,"vaccinia virus [5]; read-out: IC90, virus released into the media (EEV)",37.8 nM
same,vaccinia virus cell-to-cell spread,vaccinia virus [6],clear dose-dependent response
same,IC50,"vaccinia virus [6]; read-out: IC50, vaccinia virus cell-to-cell spread",15.7 nM
same,IC90,"vaccinia virus [6]; read-out: IC90, vaccinia virus cell-to-cell spread",27 nM
same,toxicity to BSC40 cells,BSC40 cells,showed a dose response for toxicity

# Source: patent US20230321045A1 (priority 2022, published 2023)
